Experimental findings from US9790174B2, “Kinase inhibitors” (Respivert Limited, priority 2013, dated 2017) are described below.

The target of one data set is GSK 3α (Homo sapiens (Human), UniProt P49840). Briefly: GSK 3α enzyme inhibition (Z-LYTE FRET, Method 1 / Method 2). Particulars: read-out: IC50 Values for Enzyme Inhibition GSK3α. Type of data set: biochemical. The protocol:
The enzyme inhibitory activities of compounds disclosed herein are determined by FRET using synthetic peptides labelled with both donor and acceptor fluorophores (Z-LYTE, Invitrogen Ltd., Paisley, UK).
The following two assay variants can be used for determination of GSK 3α inhibition.
The inhibitory activities of compounds of the invention against the GSK 3α enzyme isoform (Invitrogen), are evaluated by determining the level of activation/phosphorylation of the target peptide. The GSK3-α protein (500 ng/mL, 2.5 μL) is mixed with the test compound (2.5 μL at either 4 μg/mL, 0.4 μg/mL, 0.04 μg/mL, or 0.004 μg/mL) for 2 hr at RT. The FRET peptide (8 μM, 2.5 μL), which is a phosphorylation target for GSK3α, and ATP (40 μM, 2.5 μL) are then added to the enzyme/compound mixture and the resulting mixture incubated for 1 hr. Development reagent (protease, 5 μL) is added for 1 hr prior to detection in a fluorescence microplate reader (Varioskan® Flash, ThermoFisher Scientific).
In all cases, the site-specific protease cleaves non-phosphorylated peptide only and eliminates the FRET signal. Phosphorylation levels of each reaction are calculated using the ratio of coumarin emission (donor) over fluorescein emission (acceptor), for which high ratios indicate high phosphorylation and low ratios indicate low phosphorylation levels. […]

Data set [1] is described as follows: Hydrolytic stability study. Type of data set: physicochemical. Particulars: DMSO and water (3:1), 1 mg/mL, 60° C. The protocol:
Chemical stability of compounds of the invention was assessed in a mixture of DMSO and water (3:1) at a test compound concentration of 1 mg/mL
Sample Preparation • A 1.0 mg sample of test compound was dissolved in 750 μL of DMSO. Water (250 μL) was added slowly, ensuring no precipitation occurred.
Recording Stability • A 50 μL aliquot of the test solution was removed and analysed in duplicate by 5 μL HPLC injections. The peak area for the test compound was recorded following manual integration of the corresponding UV trace. • The test solution was heated to 60° C., with stirring, and 50 μL aliquots removed for HPLC analysis at 5 and 24 h timepoints.

Sequence of GSK 3α (P49840 whole entry): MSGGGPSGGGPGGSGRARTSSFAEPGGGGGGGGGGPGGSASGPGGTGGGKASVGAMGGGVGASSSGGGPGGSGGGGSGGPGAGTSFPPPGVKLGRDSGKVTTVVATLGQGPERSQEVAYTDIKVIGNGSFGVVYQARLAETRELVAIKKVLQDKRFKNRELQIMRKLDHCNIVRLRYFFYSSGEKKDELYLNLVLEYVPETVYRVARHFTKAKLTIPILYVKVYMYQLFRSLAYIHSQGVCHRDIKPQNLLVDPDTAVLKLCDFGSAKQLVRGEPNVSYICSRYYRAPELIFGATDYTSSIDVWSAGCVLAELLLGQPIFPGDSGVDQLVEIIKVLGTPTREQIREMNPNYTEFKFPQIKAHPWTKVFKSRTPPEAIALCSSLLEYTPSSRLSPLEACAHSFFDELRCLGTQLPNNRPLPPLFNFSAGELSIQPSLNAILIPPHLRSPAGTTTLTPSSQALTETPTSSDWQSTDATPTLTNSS

Turning to `COc1cc(Nc2cc(Oc3ccc(NC(=O)Nc4cc(C(C)(C)C)cc(NS(C)(=O)=O)c4OC)c4ccccc34)ccn2)cc(C(=O)NCCN2CCNCC2)c1` [Example 85(q)], the half-maximal inhibitory concentration (IC50) (commonly the concentration needed to halve the response being measured) at GSK 3α turned out to be 249 nM.

With `C#Cc1cc(Nc2nccc(Oc3ccc(NC(=O)Nc4cc(C(C)C)nn4-c4ccc(C)cc4)c4ccccc34)n2)cc(C(=O)NCCN2CCOCC2)c1` [Reference Compound B, 3-ethynyl-5-((4-((4-(3-(3-isopropyl-1-(p-tolyl)-1H-pyrazol-5-yl)ureido)naphthalen-1-yl)oxy)pyrimidin-2-yl)amino)-N-(2-morpholinoethyl)benzamide], in data set [1], the decomposition result is reported as “underwent substantial decomposition”.
